Assays:
Format in all cases: cell-based
HCC827 cells = assay: Cell growth inhibition (CellTiter-Glo, 3 days) in HCC827; settings: Homo sapiens, 72 h, 3 days after administration
How it was run: (§1)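 HCC827 cells in RPMI/10% FBS and A431 cells in DMEM/10% FBS were seeded at 5000 cells/well and left overnight. Compound was then added over a concentration range for 3 days of incubation, and viability was read by CellTiter-Glo luminescence.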

[1] = tested on: HCC827-YVMA cells (human ERBB2 exon20 insertion mutant A775_G776ins YVMA); assay: Cell growth inhibition (CellTiter-Glo, 3 days) in HCC827-YVMA; settings: 72 h, 3 days after administration
How it was run: (§2)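 HCC827 cells lentivirally transduced with codon-optimized ASV or YVMA insertion mutants were seeded at 5000 cells/well in RPMI with 10% FBS and incubated overnight. Compound was added at various concentrations from a 10× stock in medium, with 3 days' incubation. Viability read by CellTiter-Glo luminescence.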

A431 cells = assay: Cell growth inhibition (CellTiter-Glo, 3 days) in A431; settings: Homo sapiens, A-431, 72 h, 3 days after administration
How it was run: as §1

[2] = tested on: HCC827-ASV cells (human EGFR exon 20 insertion mutant A769_D770insASV); assay: Cell growth inhibition (CellTiter-Glo, 3 days) in HCC827-ASV; settings: 72 h, 3 days after administration
How it was run: as §2

[3] = tested on: HCC827-SVD cells (human EGFR exon 20 insertion mutant D770_N771 insSVD); assay: Cell growth inhibition (CellTiter-Glo, 3 days) in HCC827-SVD; settings: 72 h, 3 days after administration
How it was run: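 HCC827 cells carrying lentiviral codon-optimized EGFR D770_N771 insSVD, with endogenous EGFR knocked out by CRISPR (single clone), seeded at 5000 cells/well in RPMI with 10% FBS. Viability read by CellTiter-Glo luminescence.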

| SMILES | GI50 (HCC827 cells) [nM] | GI50 [1] [nM] | GI50 (A431 cells) [nM] | GI50 [2] [nM] | GI50 [3] [nM] |
| --- | --- | --- | --- | --- | --- |
| C=CC(=O)N1CCC(Oc2cc3c(Nc4ccc(Oc5ccnc(N6C[C@@H](C)N(C)[C@@H](C)C6)c5)cc4F)ncnc3cc2OC)CC1 [Example 156, 1-(4-((4-((2-fluoro-4-((2-((3R,5S)-3,4,5-trimethylpiperazin-1-yl)pyridin-4-yl)oxy)phenyl)amino)-7-methoxyquinazolin-6-yl)oxy)piperidin-1-yl)prop-2-en-1-one] | ≥ 1000 | 100 to 300 | ≥ 1000 | 100 to 300 | 100 to 300 |
| C=CC(=O)N1CCC(Oc2cc3c(Nc4ccc(Oc5ccnc(N6CCN(C(C)C)CC6)c5)cc4F)ncnc3cc2OC)CC1 [Example 157, 1-(4-((4-((2-fluoro-4-((2-(4-isopropylpiperazin-1-yl)pyridin-4-yl)oxy)phenyl)amino)-7-methoxyquinazolin-6-yl)oxy)piperidin-1-yl)prop-2-en-1-one] | ≥ 1000 | ≥ 1000 | ≥ 1000 | ≥ 1000 | ≥ 1000 |
| C=CC(=O)N1CCC(Nc2cc3c(Nc4ccc(Oc5ccnc(N6C[C@H](C)C[C@H](C)C6)c5)cc4F)ncnc3cc2OC)CC1 [Example 158, 1-(4-((4-((4-((2-((3S,5R)-3,5-dimethylpiperidin-1-yl)pyridin-4-yl)oxy)-2-fluorophenyl)amino)-7-methoxyquinazolin-6-yl)amino)piperidin-1-yl)prop-2-en-1-one] | 600 to 1000 | 300 to 600 | ≥ 1000 | 100 to 300 | 60 to 100 |
| C=CC(=O)N1CCC(Nc2cc3c(Nc4ccc(Oc5ccnc(N6CCC(OC)C(C)(C)C6)c5)cc4F)ncnc3cc2OC)CC1 (stereo not drawn) [Example 159, 1-(4-((4-((2-fluoro-4-((2-(4-methoxy-3,3-dimethylpiperidin-1-yl)pyridin-4-yl)oxy)phenyl)amino)-7-methoxyquinazolin-6-yl)amino)piperidin-1-yl)prop-2-en-1-one] | 100 to 300 | 60 to 100 | 300 to 600 | 30 to 60 | 30 to 60 |
| C=CC(=O)N1CCC(Nc2cc3c(Nc4ccc(Oc5ccnc(N6CC7C(C6)C7(F)F)c5)cc4F)ncnc3cc2OC)CC1 (stereo not drawn) [Example 160, 1-(4-((4-((4-((2-(6,6-difluoro-3-azabicyclo[3.1.0]hexan-3-yl)pyridin-4-yl)oxy)-2-fluorophenyl)amino)-7-methoxyquinazolin-6-yl)amino)piperidin-1-yl)prop-2-en-1-one] | 30 to 60 | < 30 | 60 to 100 | < 30 | < 30 |
| C=CC(=O)N1CCC(Nc2cc3c(Nc4ccc(Oc5ccnc(N6CC(C(F)(F)F)C6)c5)cc4F)ncnc3cc2OC)CC1 [Example 161, 1-(4-((4-((2-fluoro-4-((2-(3-(trifluoromethyl)azetidin-1-yl)pyridin-4-yl)oxy)phenyl)amino)-7-methoxyquinazolin-6-yl)amino)piperidin-1-yl)prop-2-en-1-one] | 100 to 300 | < 30 | 300 to 600 | < 30 | < 30 |
| C=CC(=O)N1CCC(Oc2cc3c(Nc4ccc(Oc5ccnc(N6CC[C@@H](N(C)C)C6)c5)cc4F)ncnc3cc2OC)CC1 [Example 162, (R)-1-(4-((4-((4-((2-(3-(dimethylamino)pyrrolidin-1-yl)pyridin-4-yl)oxy)-2-fluorophenyl)amino)-7-methoxyquinazolin-6-yl)oxy)piperidin-1-yl)prop-2-en-1-one] | 100 to 300 | 100 to 300 | ≥ 1000 | 100 to 300 | 100 to 300 |
| C=CC(=O)N1CCC(Oc2cc3c(Nc4ccc(Oc5ccnc(N6C[C@H](OC)[C@H](OC)C6)c5)cc4F)ncnc3cc2OC)CC1 [Example 163, 1-(4-((4-((4-((2-((3R,4S)-3,4-dimethoxypyrrolidin-1-yl)pyridin-4-yl)oxy)-2-fluorophenyl)amino)-7-methoxyquinazolin-6-yl)oxy)piperidin-1-yl)prop-2-en-1-one] | ≥ 1000 | 100 to 300 | ≥ 1000 | 30 to 60 | 30 to 60 |
| C=CC(=O)N1CCC(Nc2cc3c(Nc4ccc(Oc5ccnc(N6CCC[C@@H](OC)C6)c5)cc4F)ncnc3cc2OC)CC1 [Example 164, (R)-1-(4-((4-((2-fluoro-4-((2-(3-methoxypiperidin-1-yl)pyridin-4-yl)oxy)phenyl)amino)-7-methoxyquinazolin-6-yl)amino)piperidin-1-yl)prop-2-en-1-one] | 300 to 600 | < 30 | 600 to 1000 | < 30 | < 30 |
| C=CC(=O)N1CCC(Oc2cc3c(Nc4ccc(Oc5cc(N6C[C@@H](C)O[C@@H](C)C6)ncc5Cl)cc4F)ncnc3cc2OC)CC1 [Example 166, 1-(4-((4-((4-((5-chloro-2-((2R,6S)-2,6-dimethylmorpholino)pyridin-4-yl)oxy)-2-fluorophenyl)amino)-7-methoxyquinazolin-6-yl)oxy)piperidin-1-yl)prop-2-en-1-one] | 300 to 600 | 300 to 600 | ≥ 1000 | 100 to 300 | ≥ 1000 |
| C=CC(=O)Nc1cc2c(Nc3ccc(Oc4ccnc(-c5nc(C)cs5)c4)cc3F)ncnc2cc1OCC [Example 168, N-(7-ethoxy-4-((2-fluoro-4-((2-(4-methylthiazol-2-yl)pyridin-4-yl)oxy)phenyl)amino)quinazolin-6-yl)acrylamide] | ≥ 1000 | ≥ 1000 | ≥ 1000 | ≥ 1000 | 300 to 600 |
| C=CC(=O)Nc1cc2c(Nc3ccc(Oc4ccnc(N5C[C@@H](C)O[C@@H](C)C5)c4)cc3F)ncnc2cc1OCC [Example 169, N-(4-((4-((2-((2S,6R)-2,6-dimethylmorpholino)pyridin-4-yl)oxy)-2-fluorophenyl)amino)-7-ethoxyquinazolin-6-yl)acrylamide] | ≥ 1000 | ≥ 1000 | ≥ 1000 | ≥ 1000 | ≥ 1000 |
| C=CC(=O)N1CCC(Nc2cc3c(Nc4ccc(Oc5ccnc(N6CC[C@H](O)[C@H](F)C6)c5)cc4F)ncnc3cc2OC)CC1 [Example 170, 1-(4-((4-((2-fluoro-4-((2-((3R,4S)-3-fluoro-4-hydroxypiperidin-1-yl)pyridin-4-yl)oxy)phenyl)amino)-7-methoxyquinazolin-6-yl)amino)piperidin-1-yl)prop-2-en-1-one] | 600 to 1000 | 100 to 300 | ≥ 1000 | 60 to 100 | 60 to 100 |
| C=CC(=O)N1CCC(Nc2cc3c(Nc4ccc(Oc5ccnc(N6CCC(O)C(C)(C)C6)c5)cc4F)ncnc3cc2OC)CC1 (stereo not drawn) [Example 171, 1-(4-((4-((2-fluoro-4-((2-(4-hydroxy-3,3-dimethylpiperidin-1-yl)pyridin-4-yl)oxy)phenyl)amino)-7-methoxyquinazolin-6-yl)amino)piperidin-1-yl)prop-2-en-1-one] | 300 to 600 | 30 to 60 | 600 to 1000 | 30 to 60 | 30 to 60 |
| C=CC(=O)N1CCC(Nc2cc3c(Nc4ccc(Oc5ccnc(N6CCC(O)C(F)(F)C6)c5)cc4F)ncnc3cc2OC)CC1 (stereo not drawn) [Example 172, 1-(4-((4-((4-((2-(3,3-difluoro-4-hydroxypiperidin-1-yl)pyridin-4-yl)oxy)-2-fluorophenyl)amino)-7-methoxyquinazolin-6-yl)amino)piperidin-1-yl)prop-2-en-1-one] | 300 to 600 | < 30 | 600 to 1000 | < 30 | < 30 |
| C=CC(=O)N1CCC(Nc2cc3c(Nc4ccc(Oc5ccnc(N6CC[C@@H](O)C6)c5)cc4F)ncnc3cc2OC)CC1 [Example 173, (R)-1-(4-((4-((2-fluoro-4-((2-(3-hydroxypyrrolidin-1-yl)pyridin-4-yl)oxy)phenyl)amino)-7-methoxyquinazolin-6-yl)amino)piperidin-1-yl)prop-2-en-1-one] | 300 to 600 | 100 to 300 | ≥ 1000 | 60 to 100 | 100 to 300 |
| C=CC(=O)N1CCC(Nc2cc3c(Nc4ccc(Oc5ccnc(N6CC[C@H](O)C6)c5)cc4F)ncnc3cc2OC)CC1 [Example 174, (S)-1-(4-((4-((2-fluoro-4-((2-(3-hydroxypyrrolidin-1-yl)pyridin-4-yl)oxy)phenyl)amino)-7-methoxyquinazolin-6-yl)amino)piperidin-1-yl)prop-2-en-1-one] | 600 to 1000 | 100 to 300 | ≥ 1000 | 100 to 300 | 100 to 300 |
| C=CC(=O)N1CCC(Nc2cc3c(Nc4ccc(Oc5ccnc(N6CC7(CC(O)C7)C6)c5)cc4F)ncnc3cc2OC)CC1 [Example 175, 1-(4-((4-((2-fluoro-4-((2-(6-hydroxy-2-azaspiro[3.3]heptan-2-yl)pyridin-4-yl)oxy)phenyl)amino)-7-methoxyquinazolin-6-yl)amino)piperidin-1-yl)prop-2-en-1-one] | 600 to 1000 | 30 to 60 | ≥ 1000 | 30 to 60 | 30 to 60 |
